Legend:
MAGL [1] = molecular target: T1, MAGL (Mus musculus, UniProt O35678); assay: In vitro competitive activity-based protein profiling, mouse MAGL; format: biochemical; settings: for inhibition at 1 µM: read-out: MAGL % inh. 1 μM (mouse)
T1 construct: mouse brain membrane fraction or cell lysates for mouse assays; from tissue
T1 sequence (O35678 1-303): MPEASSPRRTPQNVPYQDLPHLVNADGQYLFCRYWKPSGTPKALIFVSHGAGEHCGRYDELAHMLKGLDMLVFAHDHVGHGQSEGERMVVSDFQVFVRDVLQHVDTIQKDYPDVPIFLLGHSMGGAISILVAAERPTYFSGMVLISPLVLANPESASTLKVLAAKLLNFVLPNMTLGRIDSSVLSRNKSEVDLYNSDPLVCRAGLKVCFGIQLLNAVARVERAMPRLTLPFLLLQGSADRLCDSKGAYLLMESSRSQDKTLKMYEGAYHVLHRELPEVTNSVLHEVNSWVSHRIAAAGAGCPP
Method in brief: (§1)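 Activity measured as fluorescent gel-band intensity of MAGL and FAAH after SDS-PAGE. Before labelling with FP-Rh or HT-01 (30 min, 37 °C), proteomes at 1.0 mg/mL (mouse brain membrane or lysates; human prefrontal cortex or cell membranes) were exposed to varying inhibitor concentrations for 30 min at 37 °C.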

MAGL [2] = molecular target: T1, MAGL; assay: Mouse brain proteomes from inhibitor treated mice, MAGL; format: in vivo; settings: oral gavage, brain 4 h after administration, read-out: MAGL % inh. 5 mg/kg (mouse)
Experimental: Preparation of Mouse Brain Proteomes from Inhibitor Treated Mice.
Inhibitors were administered to wild-type C57Bl/6J by oral gavage in a vehicle of polyethylene glycol. Each animal was sacrificed 4 h following administration and brain proteomes were prepared and analyzed according to previously established methods (See Niphakis, M. J., et al. (2011) ACS Chem. Neurosci. and Long, J. Z., et al. Nat. Chem. Biol. 5:37-44).

FAAH = molecular target: T2, FAAH (Mus musculus, UniProt O08914); assay: In vitro competitive activity-based protein profiling, mouse FAAH; format: biochemical; settings: for inhibition at 1 µM: read-out: FAAH % inh. 1 μM (mouse)
T2 construct: mouse brain membrane fraction or cell lysates for mouse assays; from tissue
T2 sequence (O08914 1-579): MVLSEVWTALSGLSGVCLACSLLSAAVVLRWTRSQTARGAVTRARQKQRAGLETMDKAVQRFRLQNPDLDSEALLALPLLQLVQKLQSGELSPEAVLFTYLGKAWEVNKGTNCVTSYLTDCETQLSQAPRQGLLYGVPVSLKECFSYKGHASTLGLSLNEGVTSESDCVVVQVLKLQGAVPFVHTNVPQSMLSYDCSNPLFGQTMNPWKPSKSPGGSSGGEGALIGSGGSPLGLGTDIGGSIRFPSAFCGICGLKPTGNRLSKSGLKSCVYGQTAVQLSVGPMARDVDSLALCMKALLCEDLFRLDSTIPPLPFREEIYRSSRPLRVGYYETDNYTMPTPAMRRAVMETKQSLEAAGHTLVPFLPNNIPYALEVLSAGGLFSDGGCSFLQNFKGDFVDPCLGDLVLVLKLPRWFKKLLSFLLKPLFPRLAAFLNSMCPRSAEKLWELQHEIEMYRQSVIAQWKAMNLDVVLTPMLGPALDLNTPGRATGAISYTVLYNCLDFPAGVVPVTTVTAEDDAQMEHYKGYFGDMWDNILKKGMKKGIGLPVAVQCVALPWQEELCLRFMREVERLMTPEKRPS
Method in brief: as §1

SMILES | IC50 (MAGL [1]) | inhibition at 1 µM (MAGL [1]; 1 μM) | inhibition at 5 mg/kg (MAGL [2]) | IC50 (FAAH) | inhibition at 1 µM (FAAH; 1 μM) | MAGL % inh. 1 μM (mouse) (MAGL [1]; 1 μM) | FAAH % inh. 1 μM (mouse) (FAAH; 1 μM)
CN(Cc1ccccc1C(F)(F)F)[C@@H]1C[C@@H]2CN(C(=O)n3cc(C(N)=O)cn3)C[C@@H]2C1 [Example 90, 1-(cis-5-(methyl(2-(trifluoromethyl)benzyl)amino)octahydrocyclopenta[c]pyrrole-2-carbonyl)-1H-pyrazole-4-carboxamide] |  | ≥ 75% | ≥ 75% |  | ≥ 75% |  | 
O=C(N1CC2CN(Cc3ccc(Cl)cc3)CC2C1)n1cc(Cl)cn1 (stereo not shown) [Example 118, (4-chloro-1H-pyrazol-1-yl)(5-(4-chlorobenzyl)hexahydropyrrolo[3,4-c]pyrrol-2(1H)-yl)methanone] | 100 to 1000 nM | ≥ 75% | ≥ 75% | ≤ 100 nM | ≥ 75% |  | 
CN(Cc1ccccc1Cl)[C@@H]1C[C@@H]2CN(C(=O)n3cc(Cl)cn3)C[C@@H]2C1 [Example 59, (4-chloro-1H-pyrazol-1-yl)(trans-5-((2-chlorobenzyl)(methyl)amino)hexahydrocyclopenta[c]pyrrol-2(1H)-yl)methanone] | ≤ 100 nM |  | ≥ 75% | ≤ 100 nM |  | A (% inhibition greater than or equal to 75%) | A (% inhibition greater than or equal to 75%)
CNC(=O)c1cnn(C(=O)N2C[C@H]3C[C@@H](N(C)Cc4ccc(C(F)(F)F)cc4)C[C@H]3C2)c1 [Example 54, N-methyl-1-(cis-5-(methyl(4-(trifluoromethyl)benzyl)amino)octahydrocyclopenta[c]pyrrole-2-carbonyl)-1H-pyrazole-4-carboxamide] | 100 to 1000 nM | ≥ 75% | ≥ 75% | ≤ 100 nM | ≥ 75% |  | 
CN(Cc1ccccc1Cl)[C@H]1C[C@@H]2CN(C(=O)n3cc(C(N)=O)cn3)C[C@@H]2C1 [Example 96, 1-(trans-5-((2-chlorobenzyl)(methyl)amino)octahydrocyclopenta[c]pyrrole-2-carbonyl)-1H-pyrazole-4-carboxamide] | 100 to 1000 nM | ≥ 75% | ≥ 75% | ≤ 100 nM | ≥ 75% |  | 
O=C(N1CC2CN(Cc3ccccc3Cl)CC2C1)n1cc(C(F)(F)F)cn1 (stereo not shown) [Example 151, (5-(2-chlorobenzyl)hexahydropyrrolo[3,4-c]pyrrol-2(1H)-yl)(4-(trifluoromethyl)-1H-pyrazol-1-yl)methanone] | ≤ 100 nM | ≥ 75% |  | ≤ 100 nM | ≥ 75% |  | 
COc1ccc(CN2CC3CN(C(=O)n4cc(C(F)(F)F)cn4)CC3C2)cc1 (stereo not shown) [Example 148, (5-(4-methoxybenzyl)hexahydropyrrolo[3,4-c]pyrrol-2(1H)-yl)(4-(trifluoromethyl)-1H-pyrazol-1-yl)methanone] | 100 to 1000 nM | ≥ 75% |  | ≤ 100 nM | ≥ 75% |  | 
CN(Cc1cccc(Cl)c1)[C@H]1C[C@@H]2CN(C(=O)n3cc(Cl)cn3)C[C@@H]2C1 [Example 72, (4-chloro-1H-pyrazol-1-yl)(trans-5-((3-chlorobenzyl)(methyl)amino)hexahydrocyclopenta[c]pyrrol-2(1H)-yl)methanone] | ≤ 100 nM | ≥ 75% |  | ≤ 100 nM | ≥ 75% |  | 
Cc1cccc(CN2CC3CN(C(=O)n4cc(C(F)(F)F)cn4)CC3C2)c1 (stereo not shown) [Example 141, (5-(3-methylbenzyl)hexahydropyrrolo[3,4-c]pyrrol-2(1H)-yl)(4-(trifluoromethyl)-1H-pyrazol-1-yl)methanone] | ≤ 100 nM | ≥ 75% |  | ≤ 100 nM | ≥ 75% |  | 
CC(=O)N(Cc1ccc(Cl)cc1)[C@@H]1C[C@@H]2CN(C(=O)n3cc(Cl)cn3)C[C@@H]2C1 [Example 69, N-(cis-2-(4-chloro-1H-pyrazole-1-carbonyl)octahydrocyclopenta[c]pyrrol-5-yl)-N-(4-chlorobenzyl)acetamide] | ≤ 100 nM | ≥ 75% |  | ≤ 100 nM | ≥ 75% |  | 

Further lines, with some results ahead:

IC50 (MAGL [1]) | inhibition at 1 µM (MAGL [1]; 1 μM) | inhibition at 5 mg/kg (MAGL [2]) | IC50 (FAAH) | inhibition at 1 µM (FAAH; 1 μM) | SMILES | MAGL % inh. 1 μM (mouse) (MAGL [1]; 1 μM) | FAAH % inh. 1 μM (mouse) (FAAH; 1 μM)
≤ 100 nM | ≥ 75% | ≥ 75% | ≤ 100 nM | ≥ 75% | NC(=O)c1cnn(C(=O)N2CCC3(CCN(Cc4cc(Cl)cc(C(F)(F)F)c4)C3)C2)c1 (stereo not shown) [Example 43, 1-(7-(3-chloro-5-(trifluoromethyl)benzyl)-2,7-diazaspiro[4.4]nonane-2-carbonyl)-1H-pyrazole-4-carboxamide] |  | 
100 to 1000 nM | ≥ 75% | ≥ 75% | ≤ 100 nM | ≥ 75% | NC(=O)c1cnn(C(=O)N2CCC3(CCN(Cc4cccc(C(F)(F)F)c4)C3)C2)c1 (stereo not shown) [Example 41, 1-(7-(3-(trifluoromethyl)benzyl)-2,7-diazaspiro[4.4]nonane-2-carbonyl)-1H-pyrazole-4-carboxamide] |  | 
≤ 100 nM | ≥ 75% | ≥ 75% | ≤ 100 nM | ≥ 75% | Cc1cc(-c2ccccc2)ccc1CN1CCC2(CCN(C(=O)n3cc(Cl)cn3)C2)C1 (stereo not shown) [Example 130, (4-chloro-1H-pyrazol-1-yl)(7-((3-methyl-[1,1′-biphenyl]-4-yl)methyl)-2,7-diazaspiro[4.4]nonan-2-yl)methanone] |  | 
100 to 1000 nM | ≥ 75% | 0 to 25% | ≤ 100 nM | ≥ 75% | O=C(c1cnn(C(=O)N2CCC3(CCN(Cc4ccc(N5CCOCC5)cc4C(F)(F)F)C3)C2)c1)N1CCCC1 (stereo not shown) [Example 50, (1-(7-(4-morpholino-2-(trifluoromethyl)benzyl)-2,7-diazaspiro[4.4]nonane-2-carbonyl)-1H-pyrazol-4-yl)(pyrrolidin-1-yl)methanone] |  | 
100 to 1000 nM | ≥ 75% | 0 to 25% | ≤ 100 nM | ≥ 75% | O=C(N1CCC2(CCN(Cc3ccccc3Cl)C2)C1)n1cc(Cl)cn1 (stereo not shown) [Example 112, (4-chloro-1H-pyrazol-1-yl)(7-(2-chlorobenzyl)-2,7-diazaspiro[4.4]nonan-2-yl)methanone] |  | 
100 to 1000 nM | ≥ 75% | ≥ 75% | ≤ 100 nM | ≥ 75% | NC(=O)c1cnn(C(=O)N2CC[C@]3(CCN(Cc4ccc(N5CCOCC5)cc4C(F)(F)F)C3)C2)c1 [Example 195, (S)-1-(7-(4-morpholino-2-(trifluoromethyl)benzyl)-2,7-diazaspiro[4.4]nonane-2-carbonyl)-1H-pyrazole-4-carboxamide] |  | 
 | ≥ 75% |  |  | ≥ 75% | O=C(c1cnn(C(=O)N2CC3CN(Cc4cccc(C(F)(F)F)c4)CC3C2)c1)N1CCCC1 (stereo not shown) [Example 15, pyrrolidin-1-yl(1-(5-(3-(trifluoromethyl)benzyl)octahydropyrrolo[3,4-c]pyrrole-2-carbonyl)-1H-pyrazol-4-yl)methanone] |  | 
≤ 100 nM | ≥ 75% |  | ≤ 100 nM | ≥ 75% | CNC(=O)c1cnn(C(=O)N2CC3CN(Cc4cccc(C(F)(F)F)c4)CC3C2)c1 (stereo not shown) [Example 24, N-methyl-1-(5-(3-(trifluoromethyl)benzyl)octahydropyrrolo[3,4-c]pyrrole-2-carbonyl)-1H-pyrazole-4-carboxamide] |  | 
 | ≥ 75% |  |  | 25 to 50% | O=C(N1CCC2(CCN(Cc3ccccc3N3CCOCC3)C2)C1)n1cc(C(F)(F)F)cn1 (stereo not shown) [Example 182, 2-{[2-(morpholin-4-yl)phenyl]methyl}-7-{[4-(trifluoromethyl)-1H-pyrazol-1-yl]carbonyl}-2,7-diazaspiro[4.4]nonane] |  | 
100 to 1000 nM | ≥ 75% |  | ≤ 100 nM | ≥ 75% | O=C(N1CCC2(CCN(Cc3cccc(Cl)c3)C2)C1)n1cc(Cl)cn1 (stereo not shown) [Example 113, (4-chloro-1H-pyrazol-1-yl)(7-(3-chlorobenzyl)-2,7-diazaspiro[4.4]nonan-2-yl)methanone] |  | 

— patent US10385057B2, “Pyrazole compounds and methods of making and using same” (Lundbeck La Jolla Research Center, Inc., priority 2015, dated 2019)
